Here are results for eight compounds from PubChem BioAssay AID1745844 (Carcinogenic Potency Database (CPDB), 2022).

Active and inactive are the calls of the source. No rule for the calls is given here.

The data set has as its system rodent lifetime carcinogenesis bioassay, tumor incidence TD50. Kind of data set: chronic cancer bioassays in animals – CPDB, compiled studies (AID 1745844).

Take `CC[C@H]1OC(=O)C[C@@H](O)[C@H](C)[C@@H](O[C@@H]2O[C@H](C)[C@@H](O[C@H]3C[C@@](C)(O)[C@@H](O)[C@H](C)O3)[C@H](N(C)C)[C@H]2O)[C@@H](CC=O)C[C@@H](C)C(=O)/C=C/C(C)=C/C1CO[C@@H]1O[C@H](C)[C@@H](O)[C@@H](OC)[C@H]1OC` (stereo partly drawn): the carcinogen call (mouse, strain C57BL/6, females, in feed, site: liver, lesion: one or several types, types not named, dosed 52 weeks, study length 52 weeks) is “negative (inactive)”; the carcinogen call (mouse, strain C57BL/6, females, in feed, site: lung, lesion: one or several types, types not named, dosed 52 weeks, study length 52 weeks) is “negative (inactive)”; the carcinogen call (mouse, strain C57BL/6, males, in feed, site: liver, lesion: one or several types, types not named, dosed 52 weeks, study length 52 weeks) is “negative (inactive)”; the carcinogen call (mouse, strain C57BL/6, males, in feed, site: lung, lesion: one or several types, types not named, dosed 52 weeks, study length 52 weeks) is “negative (inactive)”.
In the case of `O=C(O)c1ccccc1`, the carcinogen call is, setting by setting: (mouse, strain Swiss albino, females, in drinking water, site: liver, lesion: one or several types, types not named, dosed 134 weeks, study length 134 weeks) “negative (inactive)”; (mouse, strain Swiss albino, females, in drinking water, site: lung, lesion: one or several types, types not named, dosed 134 weeks, study length 134 weeks) “negative (inactive)”; (mouse, strain Swiss albino, males, in drinking water, site: lung, lesion: one or several types, types not named, dosed 113 weeks, study length 113 weeks) “negative (inactive)”; (rat, strain Fischer 344, males, in feed, site: any site (literature study), lesion: malignant tumor, dosed 104 weeks, study length 108 weeks) “negative (inactive)”; (rat, strain Fischer 344, males, in feed, site: any site (literature study), lesion: several types, types named in the paper, dosed 104 weeks, study length 108 weeks) “negative (inactive)”. The TD50 – broadly, the 50% point of the dose-response relation for the toxic effect studied – was 133000 mg/kg/day (inactive) (mouse, strain Swiss albino, males, in drinking water, site: liver, lesion: hepatoma, dosed 113 weeks, study length 113 weeks); 104000 mg/kg/day (inactive) (rat, strain Fischer 344, females, in feed, site: any site (literature study), lesion: malignant tumor, dosed 104 weeks, study length 108 weeks); 24900 mg/kg/day (inactive) (rat, strain Fischer 344, females, in feed, site: any site (literature study), lesion: several types, types named in the paper, dosed 104 weeks, study length 108 weeks).
Take `O=[N+]([O-])c1ccc(-c2nc(NCCO)c3ccccc3n2)s1`: the TD50 reads like this: (rat, strain Sprague-Dawley, females, in feed, site: any site (literature study), lesion: several types, types named in the paper, dosed 46 weeks, study length 66 weeks) 1.87 mg/kg/day; (rat, strain Sprague-Dawley, females, in feed, site: intestine, lesion: leiomyosarcoma, dosed 46 weeks, study length 66 weeks) 3.84 mg/kg/day; (rat, strain Sprague-Dawley, females, in feed, site: liver, lesion: bile duct adenoma, dosed 46 weeks, study length 66 weeks) 132 mg/kg/day.
`c1ccc2ccccc2c1`: the TD50 runs as follows: (mouse, strain B6C3F1, females, inhaled, site: any site (literature study), lesion: several types, types named in the paper, dosed 103 weeks, study length 104 weeks) 128 mg/kg/day; (mouse, strain B6C3F1, females, inhaled, site: lung, lesion: alveolar/bronchiolar adenoma + alveolar/bronchiolar carcinoma, dosed 103 weeks, study length 104 weeks) 163 mg/kg/day; (mouse, strain B6C3F1, females, inhaled, site: lung, lesion: alveolar/bronchiolar adenoma, dosed 103 weeks, study length 104 weeks) 171 mg/kg/day; (mouse, strain B6C3F1, females, inhaled, site: lung, lesion: alveolar/bronchiolar carcinoma, dosed 103 weeks, study length 104 weeks) 4020 mg/kg/day; (rat, strain Fischer 344, females, inhaled, site: nasal cavity, olfactory epithelium + nasal cavity, respiratory epithelium, lesion: neuroblastoma + adenoma, dosed 105 weeks, study length 105 weeks) 37.3 mg/kg/day; (rat, strain Fischer 344, females, inhaled, site: nasal cavity, olfactory epithelium, lesion: neuroblastoma, dosed 105 weeks, study length 105 weeks) 52.9 mg/kg/day. For the same compound, the TD50 is, setting by setting: (rat, strain Fischer 344, females, inhaled, site: nasal cavity, respiratory epithelium, lesion: adenoma, dosed 105 weeks, study length 105 weeks) 121 mg/kg/day; (rat, strain Fischer 344, males, inhaled, site: any site (literature study), lesion: several types, types named in the paper, dosed 104 weeks, study length 104 weeks) 27.5 mg/kg/day; (rat, strain Fischer 344, males, inhaled, site: liver, lesion: hepatocellular adenoma + hepatoblastoma + hepatocellular carcinoma, dosed 104 weeks, study length 104 weeks) 171 mg/kg/day; (rat, strain Fischer 344, males, inhaled, site: mammary gland, lesion: fibroadenoma, dosed 104 weeks, study length 104 weeks) 133 mg/kg/day; (rat, strain Fischer 344, males, inhaled, site: nasal cavity, olfactory epithelium + nasal cavity, respiratory epithelium, lesion: neuroblastoma + adenoma, dosed 104 weeks, study length 104 weeks) 12.3 mg/kg/day; (rat, strain Fischer 344, males, inhaled, site: nasal cavity, olfactory epithelium, lesion: neuroblastoma, dosed 104 weeks, study length 104 weeks) 88 mg/kg/day. For the same compound, under “rat, strain Fischer 344, males, inhaled, site: nasal cavity, respiratory epithelium, lesion: adenoma, dosed 104 weeks, study length 104 weeks”, the TD50 was 14 mg/kg/day. The carcinogen call (mouse, strain B6C3F1, males, inhaled, site: any site (literature study), lesion: several types, types named in the paper, dosed 103 weeks, study length 104 weeks) was “negative (inactive)”.
With `O=NN1CCCC1c1ccc[n+]([O-])c1` (stereo not drawn), the TD50 reads like this: (hamster, strain Syrian Golden, females, in drinking water, site: liver, lesion: angiosarcoma, dosed 31 weeks, study length 96 weeks) 39 mg/kg/day (inactive); (rat, strain Fischer 344, females, in drinking water, site: esophagus, lesion: several types, types named in the paper, dosed 36 weeks, study length 104 weeks) 5.65 mg/kg/day; (rat, strain Fischer 344, females, in drinking water, site: nasal cavity, lesion: several types, types named in the paper, dosed 36 weeks, study length 104 weeks) 1.86 mg/kg/day; (rat, strain Fischer 344, males, in drinking water, site: esophagus, lesion: papilloma, dosed 36 weeks, study length 104 weeks) 2.64 mg/kg/day; (rat, strain Fischer 344, males, in drinking water, site: esophagus, lesion: several types, types named in the paper, dosed 36 weeks, study length 104 weeks) 1.63 mg/kg/day; (rat, strain Fischer 344, males, in drinking water, site: nasal cavity, lesion: malignant tumor, dosed 36 weeks, study length 104 weeks) 1.63 mg/kg/day. The TD50 is 2.64 mg/kg/day (rat, strain Fischer 344, males, in drinking water, site: nasal cavity, lesion: papilloma, dosed 36 weeks, study length 104 weeks) and 0.573 mg/kg/day (rat, strain Fischer 344, males, in drinking water, site: nasal cavity, lesion: several types, types named in the paper, dosed 36 weeks, study length 104 weeks).
For `O=Nc1ccc(Nc2ccccc2)cc1`, the TD50 reads like this: (mouse, strain B6C3F1, females, in feed, site: any site (literature study), lesion: several types, types named in the paper, dosed 53 weeks, study length 92 weeks) 2170 mg/kg/day (inactive); (mouse, strain B6C3F1, females, in feed, site: liver, lesion: hepatocellular adenoma + hepatocellular carcinoma + neoplastic nodule, dosed 53 weeks, study length 92 weeks) 2250 mg/kg/day; (mouse, strain B6C3F1, females, in feed, site: lung, lesion: alveolar/bronchiolar adenoma + alveolar/bronchiolar carcinoma, dosed 53 weeks, study length 92 weeks) 5410 mg/kg/day; (mouse, strain B6C3F1, males, in feed, site: any site (literature study), lesion: several types, types named in the paper, dosed 53 weeks, study length 92 weeks) 260 mg/kg/day; (mouse, strain B6C3F1, males, in feed, site: liver, lesion: hepatocellular adenoma + hepatocellular carcinoma + neoplastic nodule, dosed 53 weeks, study length 92 weeks) 340 mg/kg/day; (mouse, strain B6C3F1, males, in feed, site: liver, lesion: hepatocellular adenoma + hepatocellular carcinoma, dosed 53 weeks, study length 92 weeks) 340 mg/kg/day. The TD50 by setting is: (mouse, strain B6C3F1, males, in feed, site: liver, lesion: hepatocellular carcinoma, dosed 53 weeks, study length 92 weeks) 661 mg/kg/day; (mouse, strain B6C3F1, males, in feed, site: lung, lesion: alveolar/bronchiolar adenoma + alveolar/bronchiolar carcinoma, dosed 53 weeks, study length 92 weeks) 3520 mg/kg/day; (rat, strain Fischer 344, females, in feed, site: liver, lesion: hepatocellular adenoma + hepatocellular carcinoma + neoplastic nodule, dosed 78 weeks, study length 105 weeks) 1210 mg/kg/day; (rat, strain Fischer 344, males, in feed, site: liver, lesion: hepatocellular adenoma + hepatocellular carcinoma + neoplastic nodule, dosed 78 weeks, study length 105 weeks) 201 mg/kg/day; (rat, strain Fischer 344, males, in feed, site: liver, lesion: hepatocellular carcinoma + neoplastic nodule, dosed 78 weeks, study length 105 weeks) 201 mg/kg/day. Also, the carcinogen call (rat, strain Fischer 344, females, in feed, site: any site (literature study), lesion: several types, types named in the paper, dosed 78 weeks, study length 105 weeks) is “negative (inactive)”.
With `Cc1ccc2c(-c3cccc(O)c3)nc(=O)n(C(C)C)c2c1`, the carcinogen call reads like this: (mouse, strain Charles River CD1, females, in feed, site: liver, lesion: hemangiosarcoma, dosed 86 weeks, study length 86 weeks) “negative (inactive)”; (mouse, strain Charles River CD1, females, in feed, site: lung, lesion: alveolar/bronchiolar adenoma, dosed 86 weeks, study length 86 weeks) “negative (inactive)”; (mouse, strain Charles River CD1, females, in feed, site: lung, lesion: hibernoma, malignant, dosed 86 weeks, study length 86 weeks) “negative (inactive)”; (mouse, strain Charles River CD1, males, in feed, site: liver, lesion: hemangiosarcoma, dosed 86 weeks, study length 86 weeks) “negative (inactive)”; (mouse, strain Charles River CD1, males, in feed, site: lung, lesion: alveolar/bronchiolar adenoma, dosed 86 weeks, study length 86 weeks) “negative (inactive)”; (rat, strain Sandoz, females, in feed, site: liver, lesion: hepatocellular carcinoma, dosed 104 weeks, study length 104 weeks) “negative (inactive)”. Also, the carcinogen call (rat, strain Sandoz, females, in feed, site: mammary tissue, wider than the gland, lesion: fibroadenoma, dosed 104 weeks, study length 104 weeks) is “negative (inactive)” and the carcinogen call (rat, strain Sandoz, males, in feed, site: liver, lesion: one or several types, types not named, dosed 104 weeks, study length 104 weeks) was “negative (inactive)”. Also, the TD50 is 4600 mg/kg/day (inactive) (mouse, strain Charles River CD1, females, in feed, site: lung, lesion: alveolar/bronchiolar carcinoma, dosed 86 weeks, study length 86 weeks); 8400 mg/kg/day (inactive) (mouse, strain Charles River CD1, males, in feed, site: lung, lesion: alveolar/bronchiolar carcinoma, dosed 86 weeks, study length 86 weeks); 2220 mg/kg/day (inactive) (rat, strain Sandoz, females, in feed, site: liver, lesion: neoplastic nodule, dosed 104 weeks, study length 104 weeks); 113 mg/kg/day (inactive) (rat, strain Sandoz, males, in feed, site: adrenal gland, lesion: malignant tumor, dosed 104 weeks, study length 104 weeks).
Take `NCCS(=O)(=O)O`: the carcinogen call (rat, strain Wistar, females, in feed, site: mammary gland, lesion: fibroadenoma, dosed 78 weeks, study length 78 weeks) was “negative (inactive)” and the carcinogen call (rat, strain Wistar, males, in feed, site: mammary gland, lesion: fibroadenoma, dosed 78 weeks, study length 78 weeks) was “negative (inactive)”.
